Tests used:
[1] = tested on: Early Stage PD patients; settings: rasagiline 1 mg and 2 mg; end of the PC phase
Text: IV. Sub-Study • 1. Change from baseline to LOV in placebo-controlled phase in Parkinson Fatigue scale • 2. Change from baseline in Subject Reported Outcomes (US only) • 3. A blood sample for pharmacogenetic analysis will be collected from all subjects at baseline. If not performed at baseline, can be performed at any other visit. Participation in this sub-study is voluntary pending IRB/EC approval and subject's authorization on a separate informed consent form.

[2] = tested on: Early Stage PD patients; settings: 1 mg only; end of the PC phase
Text: III. Additional Efficacy Endpoints • 1. Number (%) of subjects who need additional anti-PD therapy • 2. Time to need of additional anti-PD therapy • 3. Change from baseline to LOV in placebo-controlled phase in Part I of revised UPDRS (version 4)

[3] = tested on: PD patients; settings: cited from earlier work

## C#CCN[C@@H]1CCc2ccccc21 [rasagiline]
[1]
  Parkinson Fatigue Scale: beneficial effect
[2]
  UPDRS Version 4 Part 1: beneficial effect
[3]; 1 and 2 mg/d rasagiline for one year, TEMPO
  functional decline vs treatment delayed for 6 months: less functional decline
[3]; first 6-month double-blind, randomized placebo-controlled stage of TEMPO
  efficacy as monotherapy in PD patients: efficacious as monotherapy

— US20140243418A1, “RASAGILINE FOR PARKINSON'S DISEASE MODIFICATION” (Teva Pharmaceutical Industries, Ltd., priority 2008, published 2014)
